Assay results as given in patent US7964534B2, “Nuclear magnetic resonance assembly of chemical entities using advanced antenna probes” (Triad Liquidating Company, LLC, priority 2003, dated 2011).
One block for each compound: values may come before it.

Experiments:
p38α MAP kinase = p38α MAP kinase (Homo sapiens, UniProt Q16539); test: phosphorylation of myelin basic protein (MBP) by p38α; type: biochemical
Description: The TTM2001.101.A09 bi-ligand compound and the fragments from which it was constructed were tested as inhibitors of p38α enzymatic activity in an assay measuring phosphorylation of myelin basic protein (MBP) by p38α.

ATP site of p38α = ATP site of p38α (Homo sapiens, UniProt Q16539); test: fluorescence polarization displacement of fluorescently tagged staurosporine; type: binding
[1] = molecular target: unactivated p38α MAP kinase (Homo sapiens, UniProt Q16539); test: WaterLOGSY screen of PBBA structure analogs; type: binding; conditions: 10 to 30 micromolar p38α, 0.1 to 1.0 millimolar compound, 4° C.
Source text: A library of 29 PBBA structure analogs was screened against unlabeled p38α MAP kinase (p38α) as follows. Samples containing 10 to 30 micromolar concentration of unactivated p38α MAP kinase and 0.1 to 1.0 millimolar concentration of one of the PBBA structure analogs were obtained. The samples were screened using WaterLOGSY with saturations times of 2 s (frequency selective excitation via a train of 232 6 ms it pulses with a GAUSS profile at an 80 Hz RF field strength) with […] using WATERGATE at 4° C. WaterLOGSY is further described in Dalvit et al. J. Biomol. NMR 21:349-59 (2001) Dalvit et al. J. Magn. Res. B112:282-288 (1996) and Dalvit et al., J. Biomol. NMR 11:437-444 (1998).

p38α [2] = molecular target: T1, p38α (Homo sapiens, UniProt Q16539); test: line broadening in 1D 1H NMR spectra; type: binding; parameters: dose or concentration left out as unconfirmed; conditions: 50 micromolar compound
Description: The ability of TTM2001.101.A09 to bind to p38α was determined by comparing the degree of line broadening in 1D ^1H NMR spectra for the compound in the presence of p38α compared to in the absence of p38α. […] (FIG. 4b) compared to the spectrum obtained for 50 micromolar of TTM2001.101.A09 in the absence of p38α (FIG. 4a), indicative of tight binding between p38α and TTM2001.101.A09.

p38α [3] = molecular target: T1, p38α; test: WaterLOGSY competition experiments; type: binding
Source text: A peptide having the sequence […] (SEQ ID NO:1) is a known phosphorylation substrate for p38 as described, for example, in Chen et al. Biochemistry 39:2079-2087 (2000). […] This site is shown in the lower panel of FIG. 7, and is referred to as the SL (specificity ligand) site, since extending a bi-ligand library into this site off of an ATP mimic might provide additional specificity.

Chain of p38α MAP kinase (Q16539 whole entry, the tested form may be a part): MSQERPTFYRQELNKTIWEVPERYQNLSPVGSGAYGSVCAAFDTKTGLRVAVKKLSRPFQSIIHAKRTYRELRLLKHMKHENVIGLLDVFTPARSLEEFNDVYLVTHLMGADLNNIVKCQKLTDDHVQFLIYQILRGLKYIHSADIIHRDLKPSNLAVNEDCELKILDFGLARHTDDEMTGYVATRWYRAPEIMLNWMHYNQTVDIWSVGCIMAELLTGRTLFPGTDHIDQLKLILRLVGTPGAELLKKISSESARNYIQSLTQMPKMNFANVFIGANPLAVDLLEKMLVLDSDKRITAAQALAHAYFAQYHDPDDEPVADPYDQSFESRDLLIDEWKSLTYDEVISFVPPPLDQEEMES
T1 sequence (Q16539 whole entry): as the sequence (Q16539 whole entry, the tested form may be a part) above
Chain of unactivated p38α MAP kinase (Q16539 whole entry): as the sequence (Q16539 whole entry, the tested form may be a part) above
Chain of ATP site of p38α (Q16539 whole entry): as the sequence (Q16539 whole entry, the tested form may be a part) above

Compound: CCCCc1ccc(C(=O)O)cc1 [PBBA, p-butyl benzoic acid]
- inhibition of phosphorylation of MBP protein by p38α (p38α MAP kinase): inhibit phosphorylation of MBP protein by p38α
- displacement of fluorescently tagged staurosporine (ATP site of p38α): not able to displace a fluorescently tagged staurosporine
- cross-saturation effects with p38α (binding) [1]: showed cross-saturation effects with p38α indicating binding to the protein

- tighter than either of the starting fragments (p38α MAP kinase; IC50 compared with starting fragments PBBA and TTM2001.082.B09): greater than 100 fold
- Kd (p38α MAP kinase; correction of the IC50 for high ATP concentration, read-out: Kd for binding between p38α and compound): ~300 nM
- IC50 (p38α MAP kinase; inhibition of MBP phosphorylation by p38α): 1700 nM
- line broadening in presence of p38α (binding) (p38α [2]): significant line-broadening
Compound: O=C(O)c1ccc(CCCCCCSCc2cc(-n3cnc4cc(C(=O)O)ccc43)ccc2F)cc1 [TTM2001.101.A09]

- displacement of PBBA from p38α (p38α [3]): could not displace PBBA from p38α
Compound: IPTTPITTTYFFFKKK [peptide, known phosphorylation substrate for p38]
